Assay results published in patent EP3771715A1, “CRYSTALLINE FORMS OF BARICITINIB” (Zaklady Farmaceutyczne "Polpharma" S.A., priority 2019, dated 2021).

Tests used:
Format in all cases: physicochemical
[1] = Crystalline stability against humidity (XRPD); settings: no conversion into another crystalline form by XRPD
Method: Powder X-ray diffraction was performed with a Rigaku MiniFlex 600 diffractometer with Bragg-Brentano geometry CuKa radiation and D/teX Ultra Detector. The powder X-ray diffraction patterns were recorded at a tube voltage of 40kV and a tube current of 15 mA, applying a step size of 0.01° and speed 6.0°/min with the angular range 3-36° at ambient conditions.
A test for crystalline stability against humidity can be performed as follows: The sample is exposed to a relative humidity of 75% (±5%) at 40°C (±2°C) for 4 weeks. The expression "crystalline stability" means that no conversion into another crystalline form occurs, as determined by XRPD.
The equilibrium relative humidity of a sample is measured by determining the relative humidity in % in the air above a test sample, after establishment of a humidity equilibrium in a closed/open system at a constant temperature.
A test for crystalline stability against humidity has been performed as follows: The sample is exposed to a relative humidity of 75% (±5%) at 40°C(±2°C) for 4 weeks. The expression "crystalline stability" means that no conversion into another crystalline form occurs, as determined by XRPD.

[2] = Chemical stability under accelerated ICH storage conditions (HPLC); settings: for Impurities (HPLC % a/a) RRT 1.30 / Impurities (HPLC % a/a) RRT 1.41 / Impurities (HPLC % a/a) RRT 1.40 / Impurities (HPLC % a/a) RRT 1.70 / Impurities (HPLC % a/a) RRT 2.20: 40°C, 75 ± 5% RH
Method: Purity and assay analysis was carried out using High Performance Liquid Chromatograph equipped with PDA detector. The analysis was conducted using Octadecyl silane (ODA or C18) chemically bonded to porous silica column, at a temperature of 40°C. The mobile phases was acetonitrile and 0.1% (v/v) ortho-phosphoric acid in water used in gradient.
Chemical stability study of the new crystalline forms of baricitinib i.e. PPH form I and PPH form II was performed under accelerated ICH storage conditions (40°C, 75±5% relative humidity). Samples were taken periodically (0 (start), after 1, 2, and 4 weeks) and analyzed by HPLC. Table 4 : HPLC purity of PPH form I of baricitinib

[3] = Hygroscopicity (statement, no method described)

SMILES: CCS(=O)(=O)N1CC(CC#N)(n2cc(-c3ncnc4[nH]ccc34)cn2)C1 [PPH form I, {1-(Ethylsulfonyl)-3-[4-(7H-pyrrolo[2,3-d]pyrimidin-4-yl)-1H-pyrazol-1-yl]-3-azetidinyl}acetonitrile]
- Crystalline stability study 40°C, 75 ± 5% RH After 1 week ([1]; after 1 week): Stable
- Crystalline stability study 40°C, 75 ± 5% RH After 4 weeks [1]: Stable
- Impurities (HPLC % a/a) RRT 1.30 ([2]; week 0): 0.01 % a/a
- Impurities (HPLC % a/a) RRT 1.41 ([2]; week 0): 0.03 % a/a
- Impurities (HPLC % a/a) RRT 1.30 ([2]; week 1): 0.01 % a/a
- Impurities (HPLC % a/a) RRT 1.41 ([2]; week 1): 0.03 % a/a
- Impurities (HPLC % a/a) RRT 1.30 ([2]; week 2): 0.01 % a/a
- Impurities (HPLC % a/a) RRT 1.41 ([2]; week 2): 0.03 % a/a
- Impurities (HPLC % a/a) RRT 1.30 ([2]; week 4): 0.01 % a/a
- Impurities (HPLC % a/a) RRT 1.41 ([2]; week 4): 0.03 % a/a
- Chemical stability (HPLC results) ([2]; during 0, 1, 2 and 4 weeks at 40°C, 75 ± 5% relative humidity): stable
- Hygroscopicity [3]: substantially non-hygroscopic

SMILES: CCS(=O)(=O)N1CC(CC#N)(n2cc(-c3ncnc4[nH]ccc34)cn2)C1 [PPH form II, {1-(Ethylsulfonyl)-3-[4-(7H-pyrrolo[2,3-d]pyrimidin-4-yl)-1H-pyrazol-1-yl]-3-azetidinyl}acetonitrile]
- Crystalline stability study 40°C, 75 ± 5% RH After 4 weeks ([1]; listed as PPH form II (Example 4)): Stable
- Crystalline stability study 40°C, 75 ± 5% RH After 4 weeks ([1]; listed as PPH form II of baricitinib): stable
- Impurities (HPLC % a/a) RRT 1.40 ([2]; week 0): 0.03 % a/a
- Impurities (HPLC % a/a) RRT 1.70 ([2]; week 0): 0.17 % a/a
- Impurities (HPLC % a/a) RRT 2.20 ([2]; week 0): 0.15 % a/a
- Impurities (HPLC % a/a) RRT 1.40 ([2]; week 1): 0.03 % a/a
- Impurities (HPLC % a/a) RRT 1.70 ([2]; week 1): 0.17 % a/a
- Impurities (HPLC % a/a) RRT 2.20 ([2]; week 1): 0.15 % a/a
- Impurities (HPLC % a/a) RRT 1.40 ([2]; week 2): 0.03 % a/a
- Impurities (HPLC % a/a) RRT 1.70 ([2]; week 2): 0.17 % a/a
- Impurities (HPLC % a/a) RRT 2.20 ([2]; week 2): 0.15 % a/a
- Impurities (HPLC % a/a) RRT 1.40 ([2]; week 4): 0.03 % a/a
- Impurities (HPLC % a/a) RRT 1.70 ([2]; week 4): 0.17 % a/a
- Impurities (HPLC % a/a) RRT 2.20 ([2]; week 4): 0.15 % a/a
